# Laboratory results as given in ChEMBL document CHEMBL1131690, “Synthesis and evaluation of anthranilic acid-based transthyretin amyloid fibril inhibitors” (Bioorg Med Chem Lett, 1999).
# Key:
# [1] = Binding parameter for complete inhibition of Wild type Transthyretin amyloid fibril formation at pH 4.4 with negative cooperativity by the compound at a concentration of (10.8)
# [2] = Concentration completly inhibiting Wild type TTR amyloid fibril formation at pH 4.4; format: functional
Compound,KD1 [1] [nM],KD2 [1] [nM],Concentration [2] [µM]
O=C(O)c1ccccc1Nc1cccc(C(F)(F)F)c1,30.1,255,
O=C(O)c1cccc(Nc2ccccc2C(=O)O)c1,,,7.6
